From ChEMBL document CHEMBL3045682, “Synthesis of some new indolo[2,3-c]isoquinolinyl pyrazoles, -1,3,4-oxadiazoles and their biological activities” (2013)

Key:
Type in all cases: functional
[1] = system: Radical scavenging activity; experiment: Antioxidant activity assessed as DPPH free radical scavenging activity at 25 ug/ml by spectrophotometric analysis relative to control
Aspergillus fumigatus = experiment: Antifungal activity against Aspergillus fumigatus assessed as growth inhibition at 1 mg/ml by cup-plate method; settings: read-out: IZ
Bacillus subtilis = experiment: Antibacterial activity against Bacillus subtilis assessed as growth inhibition at 1 mg/ml by cup-plate method; settings: read-out: IZ
Pseudomonas putida = experiment: Antibacterial activity against Pseudomonas putida assessed as growth inhibition at 1 mg/ml by cup-plate method; settings: read-out: IZ
Escherichia coli = experiment: Antibacterial activity against Escherichia coli assessed as growth inhibition at 1 mg/ml by cup-plate method; settings: read-out: IZ
Aspergillus flavus = experiment: Antifungal activity against Aspergillus flavus assessed as growth inhibition at 1 mg/ml by cup-plate method; settings: read-out: IZ
Aspergillus niger = experiment: Antifungal activity against Aspergillus niger assessed as growth inhibition at 1 mg/ml by cup-plate method; settings: read-out: IZ
[2] = system: Radical scavenging activity; experiment: Antioxidant activity assessed as DPPH free radical scavenging activity at 75 ug/ml by spectrophotometric analysis relative to control
[3] = system: Radical scavenging activity; experiment: Antioxidant activity assessed as DPPH free radical scavenging activity at 50 ug/ml by spectrophotometric analysis relative to control
[4] = system: Radical scavenging activity; experiment: Antioxidant activity assessed as DPPH free radical scavenging activity at 100 ug/ml by spectrophotometric analysis relative to control

CC1=NN(C(=O)n2c(=O)c3ccccc3c3c4cc(Cl)ccc4[nH]c32)C(=O)C1
Activity [1]: 67.5% | zone of inhibition at 1000 µg/mL (Aspergillus fumigatus): 13 mm | zone of inhibition at 1000 µg/mL (Bacillus subtilis): 10 mm | zone of inhibition at 1000 µg/mL (Pseudomonas putida): 15 mm | zone of inhibition at 1000 µg/mL (Escherichia coli): 7 mm | zone of inhibition at 1000 µg/mL (Aspergillus flavus): 9 mm | zone of inhibition at 1000 µg/mL (Aspergillus niger): 6 mm

CC1=NN(C(=O)n2c(=O)c3ccccc3c3c4cc(C)ccc4[nH]c32)C(=O)C1
Activity [1]: 58% | Activity [2]: 56.5% | zone of inhibition at 1000 µg/mL (Aspergillus fumigatus): 15 mm | zone of inhibition at 1000 µg/mL (Bacillus subtilis): 8 mm | Activity [3]: 64.2% | zone of inhibition at 1000 µg/mL (Pseudomonas putida): 18 mm | zone of inhibition at 1000 µg/mL (Escherichia coli): 10 mm | zone of inhibition at 1000 µg/mL (Aspergillus flavus): 14 mm | zone of inhibition at 1000 µg/mL (Aspergillus niger): 12 mm

CN[C@@H]1[C@H](O[C@H]2[C@H](O[C@H]3[C@H](O)[C@@H](O)[C@H](N=C(N)N)[C@@H](O)[C@@H]3N=C(N)N)O[C@@H](C)[C@]2(O)C=O)O[C@@H](CO)[C@H](O)[C@H]1O [STREPTOMYCIN]
zone of inhibition at 1000 µg/mL (Bacillus subtilis): 20 mm | zone of inhibition at 1000 µg/mL (Pseudomonas putida): 22 mm | zone of inhibition at 1000 µg/mL (Escherichia coli): 19 mm

OC(Cn1cncn1)(Cn1cncn1)c1ccc(F)cc1F [FLUCONAZOLE]
zone of inhibition at 1000 µg/mL (Aspergillus fumigatus): 18 mm | zone of inhibition at 1000 µg/mL (Aspergillus flavus): 19 mm | zone of inhibition at 1000 µg/mL (Aspergillus niger): 18 mm

COc1ccc2[nH]c3c(c2c1)c1ccccc1c(=O)n3-c1n[nH]c(=S)o1
Activity [1]: 60.8% | zone of inhibition at 1000 µg/mL (Aspergillus fumigatus): 15 mm | zone of inhibition at 1000 µg/mL (Bacillus subtilis): 10 mm | Activity [3]: 67.8% | zone of inhibition at 1000 µg/mL (Pseudomonas putida): 7 mm | zone of inhibition at 1000 µg/mL (Escherichia coli): 13 mm | zone of inhibition at 1000 µg/mL (Aspergillus flavus): 10 mm | zone of inhibition at 1000 µg/mL (Aspergillus niger): 10 mm

Cc1ccc2[nH]c3c(c2c1)c1ccccc1c(=O)n3-c1n[nH]c(=S)o1
Activity [1]: 57.7% | zone of inhibition at 1000 µg/mL (Aspergillus fumigatus): 10 mm | zone of inhibition at 1000 µg/mL (Bacillus subtilis): 11 mm | Activity [3]: 65.4% | zone of inhibition at 1000 µg/mL (Pseudomonas putida): 19 mm | zone of inhibition at 1000 µg/mL (Escherichia coli): 11 mm | zone of inhibition at 1000 µg/mL (Aspergillus flavus): 13 mm | zone of inhibition at 1000 µg/mL (Aspergillus niger): 8 mm

O=c1c2ccccc2c2c3cc(Cl)ccc3[nH]c2n1-c1n[nH]c(=S)o1
Activity [1]: 68.3% | Activity [2]: 58% | zone of inhibition at 1000 µg/mL (Aspergillus fumigatus): 17 mm | zone of inhibition at 1000 µg/mL (Bacillus subtilis): 19 mm | Activity [3]: 69.8% | zone of inhibition at 1000 µg/mL (Pseudomonas putida): 20 mm | zone of inhibition at 1000 µg/mL (Escherichia coli): 18 mm | zone of inhibition at 1000 µg/mL (Aspergillus flavus): 16 mm | Activity [4]: 68.9% | zone of inhibition at 1000 µg/mL (Aspergillus niger): 17 mm

Cc1cc(C)n(C(=O)n2c(=O)c3ccccc3c3c4cc(Cl)ccc4[nH]c32)n1
zone of inhibition at 1000 µg/mL (Aspergillus fumigatus): 15 mm | zone of inhibition at 1000 µg/mL (Bacillus subtilis): 11 mm | zone of inhibition at 1000 µg/mL (Pseudomonas putida): 19 mm | zone of inhibition at 1000 µg/mL (Escherichia coli): 9 mm | zone of inhibition at 1000 µg/mL (Aspergillus flavus): 11 mm | zone of inhibition at 1000 µg/mL (Aspergillus niger): 16 mm

O=C(n1nc(-c2ccccc2)cc1-c1ccccc1)n1c(=O)c2ccccc2c2c3cc(Cl)ccc3[nH]c21
zone of inhibition at 1000 µg/mL (Aspergillus fumigatus): 15 mm | zone of inhibition at 1000 µg/mL (Bacillus subtilis): 13 mm | zone of inhibition at 1000 µg/mL (Pseudomonas putida): 18 mm | zone of inhibition at 1000 µg/mL (Escherichia coli): 10 mm | zone of inhibition at 1000 µg/mL (Aspergillus flavus): 9 mm | zone of inhibition at 1000 µg/mL (Aspergillus niger): 4 mm

COc1ccc2[nH]c3c(c2c1)c1ccccc1c(=O)n3C(=O)n1nc(-c2ccccc2)cc1-c1ccccc1
Activity [1]: 60% | zone of inhibition at 1000 µg/mL (Aspergillus fumigatus): 15 mm | zone of inhibition at 1000 µg/mL (Bacillus subtilis): 11 mm | zone of inhibition at 1000 µg/mL (Pseudomonas putida): 17 mm | zone of inhibition at 1000 µg/mL (Escherichia coli): 11 mm | zone of inhibition at 1000 µg/mL (Aspergillus flavus): 17 mm | zone of inhibition at 1000 µg/mL (Aspergillus niger): 9 mm

Cc1ccc2[nH]c3c(c2c1)c1ccccc1c(=O)n3C(=O)n1nc(C)cc1C
zone of inhibition at 1000 µg/mL (Aspergillus fumigatus): 11 mm | zone of inhibition at 1000 µg/mL (Bacillus subtilis): 11 mm | zone of inhibition at 1000 µg/mL (Pseudomonas putida): 10 mm | zone of inhibition at 1000 µg/mL (Escherichia coli): 13 mm | zone of inhibition at 1000 µg/mL (Aspergillus flavus): 16 mm | Activity [4]: 64.7% | zone of inhibition at 1000 µg/mL (Aspergillus niger): 8 mm

Cc1ccc2[nH]c3c(c2c1)c1ccccc1c(=O)n3C(=O)n1nc(-c2ccccc2)cc1-c1ccccc1
Activity [1]: 56.2% | zone of inhibition at 1000 µg/mL (Aspergillus fumigatus): 4 mm | zone of inhibition at 1000 µg/mL (Bacillus subtilis): 9 mm | Activity [3]: 56.9% | zone of inhibition at 1000 µg/mL (Pseudomonas putida): 13 mm | zone of inhibition at 1000 µg/mL (Escherichia coli): 5 mm | zone of inhibition at 1000 µg/mL (Aspergillus flavus): 13 mm | zone of inhibition at 1000 µg/mL (Aspergillus niger): 15 mm

COc1ccc2[nH]c3c(c2c1)c1ccccc1c(=O)n3C(=O)N1N=C(C)CC1=O
zone of inhibition at 1000 µg/mL (Aspergillus fumigatus): 4 mm | zone of inhibition at 1000 µg/mL (Bacillus subtilis): 10 mm | zone of inhibition at 1000 µg/mL (Pseudomonas putida): 10 mm | zone of inhibition at 1000 µg/mL (Escherichia coli): 17 mm | zone of inhibition at 1000 µg/mL (Aspergillus flavus): 7 mm | zone of inhibition at 1000 µg/mL (Aspergillus niger): 9 mm

COc1ccc2[nH]c3c(c2c1)c1ccccc1c(=O)n3C(=O)n1nc(C)cc1C
Activity [2]: 53.8% | zone of inhibition at 1000 µg/mL (Aspergillus fumigatus): 4 mm | zone of inhibition at 1000 µg/mL (Bacillus subtilis): 8 mm | zone of inhibition at 1000 µg/mL (Pseudomonas putida): 10 mm | zone of inhibition at 1000 µg/mL (Escherichia coli): 11 mm | zone of inhibition at 1000 µg/mL (Aspergillus flavus): 8 mm | zone of inhibition at 1000 µg/mL (Aspergillus niger): 10 mm
